Reference: patent publication US5110825A, “Benzofuran derivative” (Shionogi & Co., Ltd., priority 1989, dated 1992)

Molecular target: T1, HMG-CoA reductase (Rattus norvegicus, UniProt P51639)
T1 sequence (P51639 1-887): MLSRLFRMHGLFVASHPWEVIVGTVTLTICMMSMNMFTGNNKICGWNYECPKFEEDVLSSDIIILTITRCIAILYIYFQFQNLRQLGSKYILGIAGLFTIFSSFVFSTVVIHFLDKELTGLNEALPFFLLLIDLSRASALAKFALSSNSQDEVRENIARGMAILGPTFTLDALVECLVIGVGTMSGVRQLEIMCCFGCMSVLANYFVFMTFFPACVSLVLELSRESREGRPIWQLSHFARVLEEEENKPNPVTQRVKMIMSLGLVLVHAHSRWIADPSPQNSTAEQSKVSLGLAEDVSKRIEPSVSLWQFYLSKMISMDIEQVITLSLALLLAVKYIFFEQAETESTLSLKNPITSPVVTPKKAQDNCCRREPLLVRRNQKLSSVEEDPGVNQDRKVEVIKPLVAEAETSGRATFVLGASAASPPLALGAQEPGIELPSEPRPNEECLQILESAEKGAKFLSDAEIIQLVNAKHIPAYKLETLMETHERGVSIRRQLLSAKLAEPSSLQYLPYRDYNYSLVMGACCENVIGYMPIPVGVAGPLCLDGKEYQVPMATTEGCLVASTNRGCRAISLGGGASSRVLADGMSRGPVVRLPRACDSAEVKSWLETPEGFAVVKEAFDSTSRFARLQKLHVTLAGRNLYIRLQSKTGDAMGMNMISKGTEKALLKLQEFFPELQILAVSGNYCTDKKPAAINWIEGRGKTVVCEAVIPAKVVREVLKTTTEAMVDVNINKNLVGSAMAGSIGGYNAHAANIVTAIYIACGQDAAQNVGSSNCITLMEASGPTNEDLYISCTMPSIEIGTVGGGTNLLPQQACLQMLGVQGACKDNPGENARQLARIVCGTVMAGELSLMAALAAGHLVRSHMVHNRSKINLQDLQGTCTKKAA
Experiment: HMG-CoA reductase inhibitory activity (rat liver microsome)
Format: biochemical, rat (Sprague-Dawley)
Details: [3-14C]HMG-CoA, 37° C., 30 minutes

IC50	Structure (SMILES)
63 nM	CNc1ccc(-c2ccc(F)cc2)c2c(/C=C/[C@@H](O)C[C@@H](O)CC(=O)O)c(C(C)C)oc12 (relative stereo) [Ia-15, Sodium (3R*,5S*)-(E)-7-[4-(4-fluorophenyl)-2-isopropyl-7-methylamino-3-yl]-3,5-dihydroxy-6-heptenate]
20 nM	CC(=O)N(C)c1ccc(-c2ccc(F)cc2)c2c(/C=C/[C@@H](O)C[C@@H](O)CC(=O)O)c(C(C)C)oc12 (relative stereo) [Ia-14, Sodium (3R*,5S*)-(E)-7-[7-(N-acetyl-N-methylamino)-4-(4-fluorophenyl)-2-isopropyl-3-yl]-3,5-dihydroxy-6-heptenate]
740 nM	CC(C)c1oc2cccc(-c3ccc(F)cc3)c2c1/C=C/[C@@H](O)C[C@@H](O)CC(=O)O
900 nM	CC(C)c1cccc2c(-c3ccc(F)cc3)c(/C=C/[C@@H](O)C[C@@H](O)CC(=O)O)oc12 (relative stereo) [Ia-2, Sodium (3R*,5S*)-(E)-7-[3-(4-fluorophenyl)-7-isopropylbenzofuran-2-yl]-3,5-dihydroxy-6-heptenate]
270 nM	Cc1ccc(C(C)C)c2c(/C=C/[C@@H](O)C[C@@H](O)CC(=O)O)c(-c3ccc(F)cc3)oc12 (relative stereo)
220 nM	Cc1cc(-c2c(CC[C@@H](O)C[C@@H](O)CC(=O)O)oc3c(C(C)C)cccc23)ccc1F (relative stereo) [Ia-11]
90 nM	Cn1nnnc1C(/C=C/[C@@H](O)C[C@@H](O)CC(=O)O)=C(\c1ccc(F)cc1)c1cc2ccccc2o1 (relative stereo)
32 nM	Cc1cc(-c2ccc3occ(C(C)C)c3c2/C=C/[C@@H](O)C[C@@H](O)CC(=O)O)ccc1F (relative stereo)
110 nM	CC(C)c1c(/C=C/[C@@H](O)C[C@@H](O)CC(=O)O)oc2c(-c3ccc(F)cc3)cccc12 (relative stereo) [Ia-5, Sodium (3R*,5S*)-(E)-7-[3-isopropyl-7-(4-fluorophenylbenzofuran-2-yl]-3,5-dihydroxy-6-heptenate]
90 nM	Cn1nnnc1C(/C=C/[C@@H](O)C[C@@H](O)CC(=O)O)=C(/c1ccc(F)cc1)c1cc2ccccc2o1 (relative stereo)
